Measured values from patent US20230265151A1, “GIP/GLP1 CO-AGONIST COMPOUNDS” (priority 2020, published 2023).
Like-named read-outs stand apart in the source and are kept apart here. *1 amine or outer side, *2 acyl side, *3 side chain or, on linkers, in order; H or OH if unused. Where a SMILES comes first, the peptide text is derived from it. Side-chain parts run from the residue outwards. [ ]: non-standard residue; d: D form. The star is where a group is joined. αMePhe(2-F) = C[C@](N)(Cc1ccccc1F)C(=O)O; γGlu = O=C(O)[C@H](CCC(=O)[*:2])N[*:1]; C14 diacid = O=C(O)CCCCCCCCCCCCC(=O)*; αMeY = C[C@](N)(Cc1ccc(O)cc1)C(=O)O; 4Pal = N[C@@H](Cc1ccncc1)C(=O)O; αMeL = CC(C)C[C@](C)(N)C(=O)O; Orn = NCCC[C@H](N)C(=O)O; AEEA = NCCOCCOCC(=O)O; Aib = CC(C)(N)C(=O)O

Columns and labels:
Type in all cases: cell-based
hGIPR = target: T1, hGIPR (Homo sapiens, UniProt P48546); assay: Functional cAMP formation (HTRF) in HEK-293 clonal cells expressing hGIPR, 0.1% bovine casein, without or with 1.0% human serum albumin; details: 37° C.; for Emax: HEK293, cAMP, percent of maximal response to GIP(1-42)NH2, read-out: hGIPR Emax, % ± SEM; for EC50: cAMP, read-out: hGIPR EC50, nM (SEM, n)
T1 construct: expressed in transfected cells
T1 sequence (P48546 22-466): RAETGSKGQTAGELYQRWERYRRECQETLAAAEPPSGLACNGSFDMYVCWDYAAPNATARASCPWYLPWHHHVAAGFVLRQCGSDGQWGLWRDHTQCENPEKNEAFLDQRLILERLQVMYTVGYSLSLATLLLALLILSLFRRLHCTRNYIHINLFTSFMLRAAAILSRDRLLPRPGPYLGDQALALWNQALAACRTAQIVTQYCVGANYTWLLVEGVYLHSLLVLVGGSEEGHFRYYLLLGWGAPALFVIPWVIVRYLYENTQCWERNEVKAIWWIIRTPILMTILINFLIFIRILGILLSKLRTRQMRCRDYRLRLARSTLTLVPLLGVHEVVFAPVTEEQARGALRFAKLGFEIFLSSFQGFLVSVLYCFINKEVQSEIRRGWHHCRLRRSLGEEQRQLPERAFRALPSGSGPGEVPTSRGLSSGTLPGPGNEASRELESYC
Method in brief: (§1)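 Cells were stimulated with peptide for 30 min at 37° C, then intracellular cAMP was measured by competitive HTRF (665/620 nm ratio) and converted to nM using a cAMP standard curve. Relative EC50 and Emax came from four-parameter logistic fits of percent maximal response against peptide concentration.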

hGCGR = target: T2, hGCGR (Homo sapiens, UniProt P47871); assay: Functional cAMP formation (HTRF) in HEK-293 clonal cells expressing hGCGR, 0.1% bovine casein, without or with 1.0% human serum albumin; details: cAMP, 37° C., read-out: hGCGR EC50, nM (SEM, n)
T2 construct: expressed in transfected cells
Method in brief: as §1

hGLP-1R = hGLP-1R (Homo sapiens, UniProt P43220); assay: Functional cAMP formation (HTRF) in HEK-293 clonal cells expressing hGLP-1R, 0.1% bovine casein, without or with 1.0% human serum albumin; design: expressed in transfected cells; details: 37° C.; for Emax: HEK293, cAMP, percent of maximal response to GLP-1(7-36)NH2, read-out: hGLP-1R Emax, % ± SEM; for EC50: cAMP, read-out: hGLP-1R EC50, nM (SEM, n)
Method in brief: as §1

[1] = 0.1% bovine casein and 1.0% human serum albumin
[2] = 0.1% bovine casein, arithmetic mean
[3] = 0.1% bovine casein (no human serum albumin), geometric mean
[4] = 0.1% bovine casein and 1.0% human serum albumin, geometric mean (SEM, n)

Sequence of hGLP-1R (P43220 24-463): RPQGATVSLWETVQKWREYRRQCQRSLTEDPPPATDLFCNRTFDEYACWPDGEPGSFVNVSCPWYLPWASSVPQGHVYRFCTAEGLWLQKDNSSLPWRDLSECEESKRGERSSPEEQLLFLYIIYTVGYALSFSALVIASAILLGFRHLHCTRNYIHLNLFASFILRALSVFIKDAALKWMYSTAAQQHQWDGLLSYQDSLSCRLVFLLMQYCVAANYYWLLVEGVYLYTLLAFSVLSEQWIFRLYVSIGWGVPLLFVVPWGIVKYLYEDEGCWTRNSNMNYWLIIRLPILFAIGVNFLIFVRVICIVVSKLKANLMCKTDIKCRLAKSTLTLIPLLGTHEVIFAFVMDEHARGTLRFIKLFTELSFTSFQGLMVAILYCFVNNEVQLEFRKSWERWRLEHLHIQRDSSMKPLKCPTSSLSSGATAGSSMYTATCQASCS
T2 sequence (P47871 26-477): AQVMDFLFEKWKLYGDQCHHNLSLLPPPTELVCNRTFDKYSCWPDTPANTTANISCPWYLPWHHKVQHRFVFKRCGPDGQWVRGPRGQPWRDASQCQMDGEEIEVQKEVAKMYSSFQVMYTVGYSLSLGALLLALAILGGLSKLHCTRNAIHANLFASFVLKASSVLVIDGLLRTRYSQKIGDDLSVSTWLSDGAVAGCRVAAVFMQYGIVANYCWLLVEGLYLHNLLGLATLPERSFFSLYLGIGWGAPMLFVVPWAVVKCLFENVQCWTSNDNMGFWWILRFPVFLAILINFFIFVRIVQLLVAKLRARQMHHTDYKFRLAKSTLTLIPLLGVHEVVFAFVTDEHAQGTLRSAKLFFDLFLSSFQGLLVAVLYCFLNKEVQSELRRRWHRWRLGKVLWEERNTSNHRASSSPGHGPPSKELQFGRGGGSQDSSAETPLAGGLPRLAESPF

Row | Structure (SMILES) | Emax (hGIPR; [1]) | Emax (hGIPR; [2]) | EC50 (hGIPR; [3]) | EC50 (hGCGR; [3]) | EC50 (hGCGR; [4]) | Emax (hGLP-1R; [1]) | Emax (hGLP-1R; [2]) | EC50 (hGLP-1R; [3]) | EC50 (hGIPR; [4]) | EC50 (hGLP-1R; [4])
1 | CC[C@H](C)[C@H](NC(=O)[C@H](CCCN)NC(=O)[C@H](CC(=O)O)NC(=O)[C@H](CC(C)C)NC(=O)[C@](C)(CC(C)C)NC(=O)[C@@H](NC(=O)C(C)(C)NC(=O)[C@H](Cc1ccncc1)NC(=O)[C@H](CC(=O)O)NC(=O)[C@H](CO)NC(=O)[C@@H](NC(=O)[C@](C)(Cc1ccccc1F)NC(=O)[C@@H](NC(=O)CNC(=O)[C@H](CCC(=O)O)NC(=O)C(C)(C)NC(=O)[C@@H](N)Cc1ccc(O)cc1)[C@@H](C)O)[C@@H](C)O)[C@@H](C)CC)C(=O)N[C@@H](C)C(=O)N[C@@H](CCC(N)=O)C(=O)NC(C)(C)C(=O)N[C@@H](CCCCNC(=O)COCCOCCNC(=O)CC[C@H](NC(=O)CCCCCCCCCCCCC(=O)O)C(=O)O)C(=O)N[C@@H](Cc1ccccc1)C(=O)N[C@H](C(=O)N[C@H](CCC(=O)O)C(=O)N[C@@](C)(Cc1ccc(O)cc1)C(=O)N[C@@H](CC(C)C)C(=O)N[C@H](C(=O)N[C@@H](CCCCNC(=O)COCCOCCNC(=O)CC[C@H](NC(=O)CCCCCCCCCCCCC(=O)O)C(=O)O)C(=O)NCC(=O)NCC(=O)N1CCC[C@H]1C(=O)N[C@@H](CO)C(=O)N[C@@H](CO)C(=O)NCC(=O)N[C@@H](C)C(=O)N1CCC[C@H]1C(=O)N1CCC[C@H]1C(=O)N1CCC[C@H]1C(=O)N[C@@H](CO)C(N)=O)[C@@H](C)CC)[C@@H](C)CC [Example 340] | 87.9% | 95.2% | 0.0206 nM | > 9950 nM | > 9950 nM | 112% | 105% | 0.409 nM |  | 
2 | CC[C@H](C)[C@H](NC(=O)[C@H](CCCN)NC(=O)[C@H](CC(=O)O)NC(=O)[C@H](CC(C)C)NC(=O)[C@](C)(CC(C)C)NC(=O)[C@@H](NC(=O)C(C)(C)NC(=O)[C@H](Cc1ccncc1)NC(=O)[C@H](CC(=O)O)NC(=O)[C@H](CO)NC(=O)[C@@H](NC(=O)[C@](C)(Cc1ccccc1F)NC(=O)[C@@H](NC(=O)CNC(=O)[C@H](CCC(=O)O)NC(=O)C(C)(C)NC(=O)[C@@H](N)Cc1ccc(O)cc1)[C@@H](C)O)[C@@H](C)O)[C@@H](C)CC)C(=O)N[C@@H](C)C(=O)N[C@@H](CCC(N)=O)C(=O)NC(C)(C)C(=O)N[C@@H](CCCCNC(=O)COCCOCCNC(=O)CC[C@H](NC(=O)CCCCCCCCCCCCC(=O)O)C(=O)O)C(=O)N[C@@H](Cc1ccccc1)C(=O)N[C@H](C(=O)N[C@H](CCC(=O)O)C(=O)N[C@@](C)(Cc1ccc(O)cc1)C(=O)N[C@@H](CC(C)C)C(=O)N[C@H](C(=O)N[C@@H](CCC(=O)O)C(=O)NCC(=O)NCC(=O)N1CCC[C@H]1C(=O)N[C@@H](CO)C(=O)N[C@@H](CO)C(=O)NCC(=O)N[C@@H](C)C(=O)N1CCC[C@H]1C(=O)N1CCC[C@H]1C(=O)N1CCC[C@H]1C(=O)N[C@@H](CO)C(=O)N[C@@H](CCCCNC(=O)COCCOCCNC(=O)CC[C@H](NC(=O)CCCCCCCCCCCCC(=O)O)C(=O)O)C(N)=O)[C@@H](C)CC)[C@@H](C)CC [Example 341] (H-Y[Aib]EGT[αMePhe(2-F)]TSD[4Pal][Aib]I[αMeL]LD[Orn]IAQ[Aib]K([AEEA-γGlu-C14 diacid])FI[dE][αMeY]LIEGGPSSGAPPPSK([AEEA-γGlu-C14 diacid])-NH2) | 83.6% | 91.4% | 0.0127 nM | > 9950 nM | > 9950 nM | 113% |  | 0.329 nM |  | 
3 | CC[C@H](C)[C@H](NC(=O)[C@H](CCCN)NC(=O)[C@H](CC(=O)O)NC(=O)[C@H](CC(C)C)NC(=O)[C@](C)(CC(C)C)NC(=O)[C@@H](NC(=O)C(C)(C)NC(=O)[C@H](Cc1ccncc1)NC(=O)[C@H](CC(=O)O)NC(=O)[C@H](CO)NC(=O)[C@@H](NC(=O)[C@](C)(Cc1ccccc1F)NC(=O)[C@@H](NC(=O)CNC(=O)[C@H](CCC(=O)O)NC(=O)C(C)(C)NC(=O)[C@@H](N)Cc1ccc(O)cc1)[C@@H](C)O)[C@@H](C)O)[C@@H](C)CC)C(=O)N[C@@H](C)C(=O)N[C@@H](CCC(N)=O)C(=O)NC(C)(C)C(=O)N[C@@H](CCC(=O)O)C(=O)N[C@@H](Cc1ccccc1)C(=O)N[C@H](C(=O)N[C@@H](CCCCNC(=O)COCCOCCNC(=O)COCCOCCNC(=O)COCCOCCNC(=O)CC[C@H](NC(=O)CCCCCCCCCCCCC(=O)O)C(=O)O)C(=O)N[C@@](C)(Cc1ccc(O)cc1)C(=O)N[C@@H](CC(C)C)C(=O)N[C@H](C(=O)N[C@@H](CCCCNC(=O)COCCOCCNC(=O)COCCOCCNC(=O)COCCOCCNC(=O)CC[C@H](NC(=O)CCCCCCCCCCCCC(=O)O)C(=O)O)C(=O)NCC(=O)NCC(=O)N1CCC[C@H]1C(=O)N[C@@H](CO)C(=O)N[C@@H](CO)C(=O)NCC(=O)N[C@@H](C)C(=O)N1CCC[C@H]1C(=O)N1CCC[C@H]1C(=O)N1CCC[C@H]1C(=O)N[C@@H](CO)C(N)=O)[C@@H](C)CC)[C@@H](C)CC [Example 342] | 89.3% |  | 0.0105 nM | > 10100 nM | > 9950 nM |  | 113% | 0.191 nM | 1.04 nM | 13.6 nM
4 | CC[C@H](C)[C@H](NC(=O)[C@H](CCCN)NC(=O)[C@H](CC(=O)O)NC(=O)[C@H](CC(C)C)NC(=O)[C@](C)(CC(C)C)NC(=O)[C@@H](NC(=O)C(C)(C)NC(=O)[C@H](Cc1ccc(O)cc1)NC(=O)[C@H](CC(=O)O)NC(=O)[C@H](CO)NC(=O)[C@@H](NC(=O)[C@](C)(Cc1ccccc1F)NC(=O)[C@@H](NC(=O)CNC(=O)[C@H](CCC(=O)O)NC(=O)C(C)(C)NC(=O)[C@@H](N)Cc1ccc(O)cc1)[C@@H](C)O)[C@@H](C)O)[C@@H](C)CC)C(=O)N[C@@H](C)C(=O)N[C@@H](CCC(N)=O)C(=O)NC(C)(C)C(=O)N[C@@H](CCC(=O)O)C(=O)N[C@@H](Cc1ccccc1)C(=O)N[C@H](C(=O)N[C@@H](CCCCNC(=O)COCCOCCNC(=O)COCCOCCNC(=O)COCCOCCNC(=O)CC[C@H](NC(=O)CCCCCCCCCCCCC(=O)O)C(=O)O)C(=O)N[C@@](C)(Cc1ccc(O)cc1)C(=O)N[C@@H](CC(C)C)C(=O)N[C@H](C(=O)N[C@@H](CCCCNC(=O)COCCOCCNC(=O)COCCOCCNC(=O)COCCOCCNC(=O)CC[C@H](NC(=O)CCCCCCCCCCCCC(=O)O)C(=O)O)C(=O)NCC(=O)NCC(=O)N1CCC[C@H]1C(=O)N[C@@H](CO)C(=O)N[C@@H](CO)C(=O)NCC(=O)N[C@@H](C)C(=O)N1CCC[C@H]1C(=O)N1CCC[C@H]1C(=O)N1CCC[C@H]1C(=O)N[C@@H](CO)C(N)=O)[C@@H](C)CC)[C@@H](C)CC [Example 343] | 90.2% | 98.8% | 0.0111 nM | > 9950 nM | > 9950 nM | 98.2% |  | 0.275 nM |  | 
5 | CC[C@H](C)[C@H](NC(=O)[C@H](CCCN)NC(=O)[C@H](CC(=O)O)NC(=O)[C@H](CC(C)C)NC(=O)[C@](C)(CC(C)C)NC(=O)[C@@H](NC(=O)C(C)(C)NC(=O)[C@@H](NC(=O)[C@H](CC(=O)O)NC(=O)[C@H](CO)NC(=O)[C@@H](NC(=O)[C@](C)(Cc1ccccc1F)NC(=O)[C@@H](NC(=O)CNC(=O)[C@H](CCC(=O)O)NC(=O)C(C)(C)NC(=O)[C@@H](N)Cc1ccc(O)cc1)[C@@H](C)O)[C@@H](C)O)C(C)C)[C@@H](C)CC)C(=O)N[C@@H](C)C(=O)N[C@@H](CCC(N)=O)C(=O)NC(C)(C)C(=O)N[C@@H](CCC(=O)O)C(=O)N[C@@H](Cc1ccccc1)C(=O)N[C@H](C(=O)N[C@@H](CCCCNC(=O)COCCOCCNC(=O)COCCOCCNC(=O)COCCOCCNC(=O)CC[C@H](NC(=O)CCCCCCCCCCCCC(=O)O)C(=O)O)C(=O)N[C@@](C)(Cc1ccc(O)cc1)C(=O)N[C@@H](CC(C)C)C(=O)N[C@H](C(=O)N[C@@H](CCCCNC(=O)COCCOCCNC(=O)COCCOCCNC(=O)COCCOCCNC(=O)CC[C@H](NC(=O)CCCCCCCCCCCCC(=O)O)C(=O)O)C(=O)NCC(=O)NCC(=O)N1CCC[C@H]1C(=O)N[C@@H](CO)C(=O)N[C@@H](CO)C(=O)NCC(=O)N[C@@H](C)C(=O)N1CCC[C@H]1C(=O)N1CCC[C@H]1C(=O)N1CCC[C@H]1C(=O)N[C@@H](CO)C(N)=O)[C@@H](C)CC)[C@@H](C)CC [Example 344] | 87.3% | 97.9% | 0.0174 nM | > 9950 nM | > 9950 nM | 96.5% | 100% | 0.336 nM | 6.78 nM | 
